Patent publication US20200407717A1, “METHODS OF MODULATING ANTISENSE ACTIVITY” (Ionis Pharmaceuticals, Inc., priority 2018, published 2020)
e = 2'-O-(2-methoxyethyl) (MOE); d = 2'-deoxy (DNA)

Tests used:
[1] = system: Malat1 RNA; assay: Antisense activity by RT-qPCR, Malat1, A431 cells; type: cell-based
Procedure: A431 cells were grown at 10,000 cells per well and pre-treated with a variety of growth factors to determine if the addition of exogenous growth factors affects antisense activity or uptake of modified antisense oligonucleotides in a cell. The growth factors used were EGF, insulin growth factor (IGF), transforming growth factor (TGF), […] (VEGF), hepatocyte growth factor (HGF), platelet growth factor (PGF) and fibroblasts growth factor (FGF). To test antisense activity, cells were treated for 4 hours with a growth factor or vehicle alone, and then treated with compound no. 25690 (complementary to Drosha), compound no. 395254 (complementary to Malat1), or vehicle alone. RNA was isolated from the cells and Drosha or Malat1 RNA levels were measured by RT-qPCR. Human primer probe set 13816 (forward sequence […], designated herein as SEQ ID NO: 3; reverse sequence […], designated herein as SEQ ID NO: 4; probe sequence […], designated herein as SEQ ID NO: 5) was used to measure Drosha mRNA levels and primer probe set RTS2736 (forward sequence […], designated herein as SEQ ID NO: 6; reverse sequence […], designated herein as SEQ ID NO: 7; probe sequence TGCCACATCGCCACCCCGT, designated herein as SEQ ID NO: 8) was used to measure Malat1 RNA levels. Drosha and Malat1 RNA levels were normalized to total RNA content, as measured by RIBOGREEN®. Results are presented in the tables below as normalized RNA levels, relative to untreated control cells.
A431 cells were treated with EGF or TGF at 200 ng/mL in the presence or absence of 1 μM of the EGFR tyrosine kinase inhibitor PD174265. The cells were then treated with compound no. 25690 or compound no. 395254 as in Example 8. Total RNA was isolated and analyzed by RT-qPCR, as in Example 8.
Following siRNA treatment, cells were treated with compound no. 25690 or compound no. 395254 in the presence or absence of EGF. 16 hours after treatment with a PS-ASO with or without EGF, cells were harvested, and RNA levels were analyzed via RT-qPCR as in Example 8.

[2] = system: EGF-EGFR signaling; assay: EGFR signaling western blot (p-EGFR, p-ERK), A431 cells; type: cell-based; conditions: 2 μM for 16 hours
Procedure: In order to test the effects of a PS-ASO on EGFR signaling, A431 cells were incubated with compound no. 116847 or no PS-ASO compound for 16 hours. All cells were then treated with EGF prior to being subjected to the pulse-chase protocol described above. Cell lysates were run on a SDS-PAGE gel and analyzed by sequential western blot for phosphorylated EGFR (P-EGFR), total EGFR (T-EGFR), phosphorylated ERK (P-ERK), and total ERK (T-ERK) using the antibodies described above for EGFR, 4370 for P-ERK (Cell Signaling Technology), and 4695 for T-ERK (Cell Signaling Technology).
110080, 25690, 25699, 395251, or 395254 at 2 μM for 16 hours prior to carrying out the pulse-chase experiment described above.

AGGAAGGAAGCTGGCGATCT (sugars from the 5' end e5 d10 e5, all phosphorothioate, methylation of C not given here) [compound 25690]
Malat1 RNA (% Control) ([1]; 2.0 nM, Control, Table 19): 100.0 % Control
Malat1 RNA (% Control) ([1]; 2.0 nM, EGF+PD174265): 100.0 % Control
Malat1 RNA (% Control) ([1]; 2.0 nM, EGF, Table 19): 100.0 % Control
Malat1 RNA (% Control) ([1]; 3.9 nM, Control, Table 19): 99.2 % Control
Malat1 RNA (% Control) ([1]; 3.9 nM, EGF+PD174265): 110.0 % Control
Malat1 RNA (% Control) ([1]; 3.9 nM, EGF, Table 19): 105.0 % Control
Malat1 RNA (% Control) ([1]; 7.8 nM, Control, Table 19): 98.2 % Control
Malat1 RNA (% Control) ([1]; 7.8 nM, EGF+PD174265): 97.2 % Control
Malat1 RNA (% Control) ([1]; 7.8 nM, EGF, Table 19): 78.2 % Control
Malat1 RNA (% Control) ([1]; 15.6 nM, Control, Table 19): 72.3 % Control
Malat1 RNA (% Control) ([1]; 15.6 nM, EGF+PD174265): 61.2 % Control
Malat1 RNA (% Control) ([1]; 15.6 nM, EGF, Table 19): 60.1 % Control
Malat1 RNA (% Control) ([1]; 31.3 nM, Control, Table 19): 64.4 % Control
Malat1 RNA (% Control) ([1]; 31.3 nM, EGF+PD174265): 59.8 % Control
Malat1 RNA (% Control) ([1]; 31.3 nM, EGF, Table 19): 40.5 % Control
Malat1 RNA (% Control) ([1]; 62.5 nM, Control, Table 19): 59.6 % Control
Malat1 RNA (% Control) ([1]; 62.5 nM, EGF+PD174265): 50.2 % Control
Malat1 RNA (% Control) ([1]; 62.5 nM, EGF, Table 19): 43.9 % Control
Malat1 RNA (% Control) ([1]; 125 nM, Control, Table 19): 46.2 % Control
Malat1 RNA (% Control) ([1]; 125 nM, EGF+PD174265): 39.6 % Control
Malat1 RNA (% Control) ([1]; 125 nM, EGF, Table 19): 25.9 % Control
Malat1 RNA (% Control) ([1]; 250 nM, Control, Table 19): 36.1 % Control
Malat1 RNA (% Control) ([1]; 250 nM, EGF+PD174265): 45.6 % Control
Malat1 RNA (% Control) ([1]; 250 nM, EGF, Table 19): 18.9 % Control
Malat1 RNA (% Control) ([1]; 500 nM, Control, Table 19): 35.5 % Control
Malat1 RNA (% Control) ([1]; 500 nM, EGF+PD174265): 42.5 % Control
Malat1 RNA (% Control) ([1]; 500 nM, EGF, Table 19): 14.5 % Control
Malat1 RNA (% Control) ([1]; 1000 nM, Control, Table 19): 22.3 % Control
Malat1 RNA (% Control) ([1]; 1000 nM, EGF+PD174265): 22.3 % Control
Malat1 RNA (% Control) ([1]; 1000 nM, EGF, Table 19): 15.2 % Control
Malat1 RNA (% Control) ([1]; 2000 nM, Control, Table 19): 19.2 % Control
Malat1 RNA (% Control) ([1]; 2000 nM, EGF+PD174265): 15.3 % Control
Malat1 RNA (% Control) ([1]; 2000 nM, EGF, Table 19): 12.4 % Control
Malat1 RNA (% Control) ([1]; 4000 nM, Control, Table 19): 17.2 % Control
Malat1 RNA (% Control) ([1]; 4000 nM, EGF+PD174265): 13.2 % Control
Malat1 RNA (% Control) ([1]; 4000 nM, EGF, Table 19): 10.2 % Control
IC50 ([1]; Control, Table 19): 43 ± 5.7 nM
IC50 ([1]; EGF 200 ng/mL + 1 μM PD174265, Table 19): 47 ± 5.3 nM
IC50 ([1]; EGF 200 ng/mL, Table 19): 19 ± 3 nM
EGFR signaling [2]: not be impacted
